Values quoted from earlier work as cited in US20260110035A1, “DNA REPAIR SIGNATURE AND PREDICTION OF RESPONSE FOLLOWING CANCER THERAPY” (priority 2022, published 2026).

System: stage II/III TNBC
Conditions: BrighTNess; only carboplatin (Arm B) vs veliparib+carboplatin (Arm A), with paclitaxel followed by AC

N.N.O=C([O-])C1(C(=O)[O-])CCC1.[Pt+2] [carboplatin]
difference in pCR rates between Arm B and Arm A: no substantial difference
